From PMC4917254 (PLoS ONE, 2016)
Several values for one entry are separate records, joined by “and”; a condition that tells them apart may be missing. Identical values can stand only once. Counter-ions that a name gives are not always drawn. Like-named read-outs stand apart in the source and are kept apart here.

How the values were obtained:
α1β2γ2L GABAARs = biological target: T1, α1β2γ2L GABAARs (Homo sapiens, UniProt P14867+P18507+P47870); test: Two-electrode voltage clamp, recombinant α1β2γ2L GABAARs in Xenopus oocytes; assay type: cell-based; settings: for nH ± SEM: Hill slope of GABA curve, α1β2γ2L
T1 construct: expressed in transfected cells; host or cells: Xenopus laevis oocytes injected with mRNA (1:1:3)
Procedure: (§1) The expression and functional characterisation of recombinant GABAARs in Xenopus oocytes were performed as previously described. The subunit mRNA ratios for the expression of αβγ receptors were adjusted according to the β subunit isoform in that when β2-containing receptors were expressed, a 1:1:3 ratio was used, whereas when β1- or β3-containing receptors were expressed, a 10:1:10 ratio was used to minimise the expression of homomeric β1/3 homomeric receptors. To express α4β2δ receptors, a 5:1:5 ratio was used, and the pharmacological characteristics of this receptor were as described in Hartiadi et al. (2016). The injection ratio used for the expression of α1β2 and β2γ2L receptors were 1:1 and 1:3 respectively. Approximately 2 to 10 ng of mRNA mixture was injected into each oocyte. Injected oocytes were stored in ND96 storage solution supplemented with 50 μg/mL gentamycin and tetracycline at 18°C.
(§2) Two-electrode voltage clamp recordings were performed on oocytes 2–5 days post-injection at room temperature (20–25°C) using a GeneClamp 500B amplifier (ADInstruments, Sydney, NSW, Australia) or a Warner OC-725C Oocyte Clamp (Warner Instrument Corp, Hamden, CT, USA). All experiments were conducted at a holding potential of –60 mV, and data were acquired with a PowerLab 2/25, and LabChart (version 5.0.2) software (ADInstruments, Sydney, NSW, Australia). The recording microelectrodes (0.2–1.1 MΩ) were generated from capillary glass (Harvard Apparatus, Holliston, MA, USA) using a single-stage glass microelectrode puller (Narishige, Tokyo, Japan), and were filled with 3 M KCl solution.
(§3) Perfusates containing these chemicals were made up fresh before each application. […] All experiments were performed using at least two different batches of oocytes.
(§4) Prism (version 5.04; GraphPad Software, La Jolla, CA, USA) was used for data analysis. All data are presented as mean ± standard error of the means (SEM).
(§5) Alternatively, the modulatory effect was expressed as the fold of potentiation, as shown in Eq 3.

α4β2δ GABAARs = biological target: T2, α4β2δ GABAARs (Homo sapiens, UniProt O14764+P47870+P48169); test: Two-electrode voltage clamp, recombinant α4β2δ GABAARs in Xenopus oocytes; assay type: cell-based; settings: for nH ± SEM: Hill slope of GABA curve, α4β2δ
T2 construct: expressed in transfected cells; host or cells: Xenopus laevis oocytes injected with mRNA (5:1:5)
Procedure: as §1, §2, §3, §4, §5

α1β2M286Wγ2L GABAARs = biological target: T3, α1β2M286Wγ2L GABAARs (Homo sapiens, UniProt P14867+P18507+P47870, M310W); test: Two-electrode voltage clamp, mutant α1β2M286Wγ2L GABAARs in Xenopus oocytes; assay type: cell-based
T3 construct: expressed in transfected cells; host or cells: Xenopus laevis oocytes injected with mRNA
Source text: (§6) Human complementary DNAs (cDNAs) of GABAAR subunits used in this study and their corresponding subcloned vectors include: α1, β1, β2 and γ2L in pCDM8; α2 and α3 in pCDNA3.1; α4 and δ in pCDNA1/Amp; α5 in pCDNA3; β3 in pGEMHE. […] Linearised plasmid DNAs were used as templates for the synthesis of messenger RNAs (mRNAs) using the mMessage mMachine T7 transcript kit from Ambion (Austin, TX, USA). Mutations were introduced to various GABAAR subunits of interest using the QuikChange II Site-Directed Mutagenesis Kit. For the α1M236W point mutation, forward primer 5′-[…]-3′ and reverse primer 5′-[…]-3′ were used. For the β2M286W point mutation, forward primer 5′-[…]-3′ and reverse primer 5′- […]-3′ were used. For the β3N265M point mutation, forward primer 5′- […]-3′ and reverse primer 5′-[…]-3′ were used.
as §1, §2, §3, §4, §5

α1β3N265Mγ2L GABAARs = biological target: T4, α1β3N265Mγ2L GABAARs (Homo sapiens, UniProt P14867+P18507+P28472, N290M); test: Two-electrode voltage clamp, mutant α1β3N265Mγ2L GABAARs in Xenopus oocytes; assay type: cell-based
T4 construct: expressed in transfected cells; host or cells: Xenopus laevis oocytes injected with mRNA (10:1:10)
Source text: as §6, §1, §2, §3, §4, §5

α1β3γ2L GABAARs = biological target: T5, α1β3γ2L GABAARs (Homo sapiens, UniProt P14867+P18507+P28472); test: Two-electrode voltage clamp, recombinant α1β3γ2L GABAARs in Xenopus oocytes; assay type: cell-based
T5 construct: expressed in transfected cells; host or cells: Xenopus laevis oocytes injected with mRNA (10:1:10)
Procedure: as §1
(§7) Two-electrode voltage clamp recordings were performed on oocytes 2–5 days post-injection at room temperature (20–25°C) using a GeneClamp 500B amplifier (ADInstruments, Sydney, NSW, Australia) or a Warner OC-725C Oocyte Clamp (Warner Instrument Corp, Hamden, CT, USA). […]
as §5

α1M236Wβ2γ2L GABAARs = biological target: T6, α1M236Wβ2γ2L GABAARs (Homo sapiens, UniProt P14867+P18507+P47870, M263W); test: Two-electrode voltage clamp, mutant α1M236Wβ2γ2L GABAARs in Xenopus oocytes; assay type: cell-based; settings: for agonist effect, mutant vs wild-type: p > 0.05, n = 5
T6 construct: expressed in transfected cells; host or cells: Xenopus laevis oocytes injected with mRNA
Source text: as §6, §1, §2, §3, §4, §5

[1] = system: α1β2, β2γ2L, αxβ2γ2L (x = 1, 2, 3 or 5), α1βxγ2L (x = 1, 2 or 3) and α4β2δ GABAARs; test: Kavain potentiation compared across GABAAR subtypes (two-electrode voltage clamp); assay type: cell-based, human; settings: 300 μM kavain, GABA EC3-7 (EC30 at α4β2δ), Tukey's test
Procedure: as §1, §7
Alternatively, the modulatory effect was expressed as the fold of potentiation, as shown in Eq 3. […]

α2β2γ2L GABAARs = α2β2γ2L GABAARs (Homo sapiens, UniProt P18507+P47869+P47870); settings: Hill slope of GABA curve
Procedure: as §1, §7, §5

α3β2γ2L GABAARs = biological target: T7, α3β2γ2L GABAARs (Homo sapiens, UniProt P18507+P34903+P47870); test: Two-electrode voltage clamp, recombinant α3β2γ2L GABAARs in Xenopus oocytes; assay type: cell-based; settings: Hill slope of GABA curve
T7 construct: expressed in transfected cells; host or cells: Xenopus laevis oocytes injected with mRNA (1:1:3)
Procedure: as §1, §7, §5

α1β1γ2L GABAARs = biological target: T8, α1β1γ2L GABAARs (Homo sapiens, UniProt P14867+P18505+P18507); test: Two-electrode voltage clamp, recombinant α1β1γ2L GABAARs in Xenopus oocytes; assay type: cell-based; settings: Hill slope of GABA curve
T8 construct: expressed in transfected cells; host or cells: Xenopus laevis oocytes injected with mRNA (10:1:10)
Procedure: as §1, §7, §5

α5β2γ2L GABAARs = biological target: T9, α5β2γ2L GABAARs (Homo sapiens, UniProt P18507+P31644+P47870); test: Two-electrode voltage clamp, recombinant α5β2γ2L GABAARs in Xenopus oocytes; assay type: cell-based; settings: Hill slope of GABA curve
T9 construct: expressed in transfected cells; host or cells: Xenopus laevis oocytes injected with mRNA (1:1:3)
Procedure: as §1, §7, §5

β2γ2L GABAARs = biological target: T10, β2γ2L GABAARs (Homo sapiens, UniProt P18507+P47870); test: Two-electrode voltage clamp, recombinant β2γ2L GABAARs in Xenopus oocytes; assay type: cell-based; settings: Hill slope of GABA curve
T10 construct: expressed in transfected cells; host or cells: Xenopus laevis oocytes injected with mRNA
Procedure: as §1, §7, §5

## CN1C(=O)CN=C(c2ccccc2)c2cc(Cl)ccc21 [diazepam]
α1β2γ2L GABAARs
  enhancement of GABA current, normalised to 10 μM GABA responses: 260 ± 4.2%
  flumazenil sensitivity of diazepam enhancement: flumazenil-sensitive

## CCOC(=O)c1ncn2c1CN(C)C(=O)c1cc(F)ccc1-2 [flumazenil]
α1β2γ2L GABAARs; 10 μM GABA + 10 μM flumazenil
  effect of flumazenil alone on GABA responses: did not alter GABA responses

## DL-kavain
α4β2δ GABAARs; 300 μM kavain, p < 0.0001
  increase of the maximal response evoked by GABA: two fold
α1β2M286Wγ2L GABAARs; 300 μM kavain, p < 0.0001 vs wild-type
  current elicited by kavain alone, % of the GABA EC3 responses: 96 ± 5.8%
α1β2M286Wγ2L GABAARs; GABA EC3 + 300 μM kavain, p > 0.05 vs α1β2γ2L
  modulatory effect on GABA EC3-elicited responses, % of GABA EC3: 270 ± 8.7%
α1β3N265Mγ2L GABAARs; 300 μM kavain
  current elicited by kavain alone, % of GABA EC3 responses: 3.3 ± 1.0%
α1β3N265Mγ2L GABAARs; GABA EC3 + 300 μM kavain, p < 0.001 vs α1β3γ2L
  kavain modulation of GABA EC3 responses: 110 ± 14%
α1β3γ2L GABAARs; GABA EC3 + 300 μM kavain
  kavain modulation of GABA EC3 responses: 260 ± 18%
α1M236Wβ2γ2L GABAARs; 300 μM kavain, n = 6
  current elicited by kavain alone, % of the GABA EC3 responses: approximately 63 ± 5.2%
α1M236Wβ2γ2L GABAARs; GABA EC3 + 300 μM kavain, n = 6, kavain-elicited current not deducted
  potentiation by co-application, % of GABA EC3 responses: 220 ± 11%
[1]
  subtype selectivity of potentiation: no significant subtype selectivity
α1β2γ2L GABAARs; 10 μM GABA + 300 μM kavain + 10 μM flumazenil
  GABA-enhancing action of kavain in the presence of flumazenil: unaffected in the presence of flumazenil
α1β2γ2L GABAARs; 10 μM GABA + 300 μM kavain, n = 5
  enhancement of GABA current, normalised to 10 μM GABA responses: 260 ± 11%
α1β2γ2L GABAARs; 300 μM kavain alone, n = 5
  intrinsic agonist activity, currents relative to the 10 mM GABA responses: < 1%
α1β2γ2L GABAARs; 300 μM kavain, GABA EC3 (10 μM), n = 6
  enhancement of GABA-elicited responses: 170 ± 23%
α1β2γ2L GABAARs; 300 μM kavain, GABA concentration-response curve
  enhancement depending on GABA concentration: modest enhancement at GABA concentrations below EC45
α1β2γ2L GABAARs; 300 μM kavain, wild-type, n = 4
  current elicited by kavain alone, % of the GABA EC3 responses: 15 ± 3.6%
α1β2γ2L GABAARs; GABA EC3 + 300 μM kavain, n = 4, kavain-elicited current not deducted
  potentiation by co-application, % of GABA EC3 responses: 250 ± 7.8%

## CCOC(=O)c1cncn1[C@H](C)c1ccccc1 [etomidate, Etomidate hydrochloride (HCl)]
α1β2M286Wγ2L GABAARs; data not shown
  etomidate sensitivity (modulatory and agonist effects): abolished
α1β3N265Mγ2L GABAARs; data not shown
  modulation (3 μM) and activation (30 μM) of the point-mutated receptors: did not modulate (at 3 μM) nor activate (at 30 μM)
α1M236Wβ2γ2L GABAARs; 3 μM etomidate, p < 0.0001, n = 5
  modulatory effect on GABA EC3 (1 μM) responses, mutant vs wild-type: significantly attenuated
α1M236Wβ2γ2L GABAARs; 30 μM etomidate
  agonist effect, mutant vs wild-type: not significantly different from wild-type receptors
α1β2γ2L GABAARs
  enhancement of GABA EC3 responses, % of maximal GABA responses: 53 ± 2.6% and 45 ± 3.1%

## NCCCC(=O)O [GABA, γ-Aminobutyric acid]
α2β2γ2L GABAARs
  nH ± SEM: 1.4 ± 0.041
α4β2δ GABAARs
  nH ± SEM: 0.70 ± 0.095
α4β2δ GABAARs; + 300 μM kavain
  nH ± SEM: 0.59 ± 0.11
α1β2M286Wγ2L GABAARs; Hill slope of GABA curve, α1β2M286Wγ2L
  nH ± SEM: 1.1 ± 0.036
α3β2γ2L GABAARs
  nH ± SEM: 1.2 ± 0.054
α1β3N265Mγ2L GABAARs; Hill slope of GABA curve, α1β3N265Mγ2L
  nH ± SEM: 1.4 ± 0.083
α1β1γ2L GABAARs
  nH ± SEM: 1.1 ± 0.059
α5β2γ2L GABAARs
  nH ± SEM: 1.0 ± 0.078
α1β3γ2L GABAARs; Hill slope of GABA curve, α1β3γ2L
  nH ± SEM: 1.2 ± 0.070
α1M236Wβ2γ2L GABAARs; Hill slope of GABA curve, mutant printed as α1M286Wβ2γ2L in table
  nH ± SEM: 0.80 ± 0.053
β2γ2L GABAARs
  nH ± SEM: 0.63 ± 0.034
α1β2γ2L GABAARs
  nH ± SEM: 0.99 ± 0.062
α1β2γ2L GABAARs; + 300 μM kavain
  nH ± SEM: 0.75 ± 0.026

## CC(C)c1cccc(C(C)C)c1O [propofol]
α1β2M286Wγ2L GABAARs; 10 μM propofol, p < 0.001
  receptor modulation in the presence of GABA EC3 (1 μM), mutant vs wild-type: significantly diminished
α1β2M286Wγ2L GABAARs; 100 μM propofol, p > 0.05
  direct activation, mutant vs wild-type: unaffected
α1β3N265Mγ2L GABAARs
  propofol activity at the point-mutated receptors: Pronounced attenuation
α1M236Wβ2γ2L GABAARs; 10 μM propofol, p < 0.01, n = 5
  modulatory effect on GABA EC3 (1 μM) responses, mutant vs wild-type: significantly attenuated
α1M236Wβ2γ2L GABAARs; 100 μM propofol
  agonist effect, mutant vs wild-type: not significantly different from wild-type receptors
α1β2γ2L GABAARs
  elicited current, % of the maximal propofol responses: 91 ± 1.5%
  enhancement of GABA EC3 responses, % of the maximal GABA responses: 45 ± 3.5% and 50 ± 4.8%
